The values that follow come from patent publication US20240067693A1, “POLYPEPTIDES AND USES THEREOF” (MEDIMMUNE LIMITED, priority 2020, published 2024).

A short description of series [1]: Thioflavin T fibrillation assay. It counts as physicochemical. The note with it: ThT fibrillation assay; peptide 1 mg/mL in 25 mM sodium acetate buffer pH 4.0; 6 days at 37 °C with shaking; >144 h = no increase. Summed up:
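Peptides at 1 mg/mL in 25 mM sodium acetate pH 4.0 with ThT (from 0.25 mM stock), incubated 6 days at 37 °C with intermittent orbital shaking at 500–750 rpm. Fluorescence (ex 444/em 480 nm) read every 30 min; value is average time to a rise in baseline-corrected signal.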

Series [2] can be described thus: Pharmacokinetic determination via IV and SC administration in Sprague Dawley rats. The conditions noted are these: male, rat, plasma, 20 nmol/kg.

Molecules are shown by their SMILES. Numbered stars: 1 amine (or outer) side, 2 acyl side, 3 side chain; on linkers, the order of the positions; unused ones are H or OH. Bridge positions count the residues as written; N and C are the ends. Square brackets hold non-standard residues; d marks the D form. Side chains are listed from the residue outwards. Peptide text beside a SMILES is read from it. * marks the point of attachment. C18 diacid = O=C(O)CCCCCCCCCCCCCCCCC(=O)*; γGlu = O=C(O)[C@H](CCC(=O)[*:2])N[*:1]; Aib = CC(C)(N)C(=O)O Some results are limits rather than exact numbers.

In the case of `CC[C@H](C)[C@H](NC(=O)[C@@H]1CCCN1C(=O)CNC(=O)[C@H](Cc1ccccc1)NC(=O)[C@H](CC(N)=O)NC(=O)C(C)(C)NC(=O)[C@H](CO)NC(=O)[C@H](CO)NC(=O)[C@H](Cc1c[nH]cn1)NC(=O)[C@H](CCCNC(=N)N)NC(=O)[C@H](CC(C)C)NC(=O)[C@H](Cc1ccccc1)NC(=O)[C@H](CC(N)=O)NC(=O)[C@H](C)NC(=O)[C@H](CC(C)C)NC(=O)[C@H](CCCNC(=N)N)NC(=O)[C@H](CCC(N)=O)NC(=O)[C@@H](NC(=O)[C@H](C)NC(=O)[C@@H]1CSSC[C@H](NC(=O)[C@@H](N)CCCCNC(=O)CC[C@H](NC(=O)CCCCCCCCCCCCCCCCC(=O)O)C(=O)O)C(=O)N[C@@H](CC(N)=O)C(=O)N[C@@H]([C@@H](C)O)C(=O)N[C@@H](C)C(=O)N[C@@H]([C@@H](C)O)C(=O)N1)[C@@H](C)O)C(=O)N[C@@H](CC(C)C)C(=O)N1CCC[C@H]1C(=O)N1CCC[C@H]1C(=O)N[C@H](C(=O)N[C@@H](CCC(=O)O)C(=O)N[C@H](C(=O)NCC(=O)N[C@@H](CO)C(=O)N[C@@H](CC(N)=O)C(=O)N[C@H](C(=O)N[C@@H](Cc1ccc(O)cc1)C(N)=O)[C@@H](C)O)C(C)C)[C@@H](C)O` [Peptide 44, K(γE-C18diacid)[CNTATC]ATQRLANFLRHSS(Aib)NFGPILPPTEVGSNTY-amide] (H-K([γGlu-C18 diacid])CNTATCATQRLANFLRHSS[Aib]NFGPILPPTEVGSNTY-NH2; disulfide 2-7; N-terminus assumed), the “Time taken to detect increase in fluorescence intensity” value (“Time taken to detect increase” below) in series [1] is given as >144 h. The half-life in series [2] (iv) is 8.9 h; in series [2] (sc), 11 h.

As for `CC[C@H](C)[C@H](NC(=O)[C@@H]1CCCN1C(=O)CNC(=O)[C@H](Cc1ccccc1)NC(=O)[C@H](CC(N)=O)NC(=O)C(C)(C)NC(=O)[C@H](CO)NC(=O)[C@H](CO)NC(=O)[C@H](Cc1c[nH]cn1)NC(=O)[C@H](CCCNC(=N)N)NC(=O)[C@H](CC(C)C)NC(=O)[C@H](Cc1ccccc1)NC(=O)[C@H](CC(N)=O)NC(=O)[C@H](C)NC(=O)[C@H](CC(C)C)NC(=O)[C@H](CCCNC(=N)N)NC(=O)[C@H](CCC(N)=O)NC(=O)[C@@H](NC(=O)[C@H](C)NC(=O)[C@@H]1CSSC[C@H](NC(=O)[C@@H](N)CCCCNC(=O)CC[C@H](NC(=O)CCCCCCCCCCCCCCCCC(=O)O)C(=O)O)C(=O)N[C@@H](CC(N)=O)C(=O)N[C@@H]([C@@H](C)O)C(=O)N[C@@H](C)C(=O)N[C@@H]([C@@H](C)O)C(=O)N1)[C@@H](C)O)C(=O)N[C@@H](CC(C)C)C(=O)N1CCC[C@H]1C(=O)N1CCC[C@H]1C(=O)N[C@H](C(=O)N[C@@H](CC(N)=O)C(=O)N[C@H](C(=O)NCC(=O)N[C@@H](CO)C(=O)N[C@@H](CC(N)=O)C(=O)N[C@H](C(=O)N[C@@H](Cc1ccc(O)cc1)C(N)=O)[C@@H](C)O)C(C)C)[C@@H](C)O` [Peptide 48, K(γE-C18diacid)[CNTATC]ATQRLANFLRHSS(Aib)NFGPILPPTNVGSNTY-amide] (H-K([γGlu-C18 diacid])CNTATCATQRLANFLRHSS[Aib]NFGPILPPTNVGSNTY-NH2; disulfide 2-7; N-terminus assumed), the “Time taken to detect increase” value in series [1] is recorded as >144 h. In addition, the values for the half-life in series [2] (iv) and in series [2] (sc) were 5.6 h and 8.1 h, respectively.

For the molecule `CC[C@H](C)[C@H](NC(=O)[C@@H]1CCCN1C(=O)CNC(=O)[C@H](Cc1ccccc1)NC(=O)[C@H](CC(N)=O)NC(=O)[C@H](CC(N)=O)NC(=O)[C@H](CO)NC(=O)[C@H](CO)NC(=O)[C@H](Cc1c[nH]cn1)NC(=O)C(C)(C)NC(=O)[C@H](CC(C)C)NC(=O)[C@H](Cc1ccccc1)NC(=O)[C@H](CC(N)=O)NC(=O)[C@H](C)NC(=O)[C@H](CC(C)C)NC(=O)[C@H](CCCNC(=N)N)NC(=O)[C@H](CCC(N)=O)NC(=O)[C@@H](NC(=O)[C@H](C)NC(=O)[C@@H]1CSSC[C@H](NC(=O)[C@H](CCCCN)NC(=O)[C@@H](N)CCCCNC(=O)CC[C@H](NC(=O)CCCCCCCCCCCCCCCCC(=O)O)C(=O)O)C(=O)N[C@@H](CC(N)=O)C(=O)N[C@@H]([C@@H](C)O)C(=O)N[C@@H](C)C(=O)N[C@@H]([C@@H](C)O)C(=O)N1)[C@@H](C)O)C(=O)N[C@@H](CC(C)C)C(=O)N1CCC[C@H]1C(=O)N1CCC[C@H]1C(=O)N[C@H](C(=O)N[C@@H](CC(N)=O)C(=O)N[C@H](C(=O)NCC(=O)N[C@@H](CO)C(=O)N[C@@H](CC(N)=O)C(=O)N[C@H](C(=O)N[C@@H](Cc1ccc(O)cc1)C(N)=O)[C@@H](C)O)C(C)C)[C@@H](C)O` [Peptide 129] (H-K([γGlu-C18 diacid])KCNTATCATQRLANFL[Aib]HSSNNFGPILPPTNVGSNTY-NH2; disulfide 3-8; N-terminus assumed), the “Time taken to detect increase” value in series [1] is reported as >144 h. Besides, the half-life in series [2] (iv) was 10.3 h; in series [2] (sc), 9 h.

The term half-life denotes how long it takes for the measured level to halve.
